Results: paper PMC12220852, “An adamantane‐based ligand as a novel chemical tool for thermosensory TRPM8 channel therapeutic modulation” (The Febs Journal, 2025)
“Also recorded” adds a separate entry of the source. Where two headings read alike, the source gives them in different places.

Legend:
[1] = target: T1, recombinant human TRPM8 stably expressed in HEK293 cells (hTRPM8) (Homo sapiens, UniProt Q7Z2W7); test: Ca2+ microfluorimetry screen for agonist/antagonist activity in hTRPM8-HEK293 cells; assay type: cell-based; details: agonists vs WS-12, antagonists vs WS-12 response, read-out: Efficacy (percentage of maximal activation or blockade)
T1 construct: expressed in transfected cells
T1 sequence (Q7Z2W7 whole entry): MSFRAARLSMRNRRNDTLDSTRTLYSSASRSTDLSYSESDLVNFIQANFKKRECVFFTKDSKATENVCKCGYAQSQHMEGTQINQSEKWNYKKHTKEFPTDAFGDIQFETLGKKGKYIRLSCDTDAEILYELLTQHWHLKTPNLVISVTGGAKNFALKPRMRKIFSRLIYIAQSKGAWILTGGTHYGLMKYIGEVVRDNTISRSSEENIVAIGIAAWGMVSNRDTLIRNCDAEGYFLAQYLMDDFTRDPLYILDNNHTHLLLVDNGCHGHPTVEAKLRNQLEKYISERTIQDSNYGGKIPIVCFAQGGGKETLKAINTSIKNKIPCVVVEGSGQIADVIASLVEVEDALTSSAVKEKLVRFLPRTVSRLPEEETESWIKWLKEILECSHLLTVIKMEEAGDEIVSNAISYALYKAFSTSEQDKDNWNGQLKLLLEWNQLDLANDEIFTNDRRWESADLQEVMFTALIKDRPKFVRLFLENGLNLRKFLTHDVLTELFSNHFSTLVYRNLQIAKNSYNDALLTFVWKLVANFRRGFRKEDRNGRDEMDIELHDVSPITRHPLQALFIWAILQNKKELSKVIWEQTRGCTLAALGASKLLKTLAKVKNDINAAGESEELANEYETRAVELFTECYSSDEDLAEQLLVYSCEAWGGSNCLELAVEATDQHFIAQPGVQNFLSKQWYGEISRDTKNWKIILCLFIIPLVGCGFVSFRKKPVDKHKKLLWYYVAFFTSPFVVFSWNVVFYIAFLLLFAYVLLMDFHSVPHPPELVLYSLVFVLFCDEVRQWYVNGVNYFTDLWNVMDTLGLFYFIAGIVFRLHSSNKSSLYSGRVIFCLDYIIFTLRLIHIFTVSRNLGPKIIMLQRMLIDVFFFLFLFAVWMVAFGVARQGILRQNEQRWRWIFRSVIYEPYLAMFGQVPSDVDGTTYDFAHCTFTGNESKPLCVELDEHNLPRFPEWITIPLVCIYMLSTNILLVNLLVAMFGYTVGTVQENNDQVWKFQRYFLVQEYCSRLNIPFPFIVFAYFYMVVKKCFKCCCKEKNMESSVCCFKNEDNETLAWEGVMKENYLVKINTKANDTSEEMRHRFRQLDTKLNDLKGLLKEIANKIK

[2] = target: T1, recombinant human TRPM8 stably expressed in HEK293 cells (hTRPM8); test: as above; assay type: cell-based; details: for Activity (agonist/antagonist): agonism = compound-induced Ca2+ influx, antagonism = modulation of WS-12-induced Ca2+ influx; for Hill coefficient: hTRPM8-HEK293 Ca2+ microfluorimetry dose-response; for EC50: half of channel activation
Text: We first evaluated the series of compounds 20–29 synthesized using the Passerini‐Adamantane reaction. All compounds were screened for channel agonism and antagonism on recombinant human TRPM8 stably expressed in HEK293 cells (hTRPM8‐HEK293) with Ca^2+ microfluorimetry. […] Compound‐induced TRPM8‐mediated Ca^2+ influx was confirmed using untransfected HEK293 cells and the channel blocker AMTB. […] The concentration of compounds to reach half of channel activation (EC50) or to block half‐channel activity evoked by WS‐12 (IC50) are reported in Table 1, along with the percentage of maximal activation or blockade (Efficacy).
Assays were conducted to assess the channel activity of the recombinant hTRPM8 stably expressed in HEK‐293 cells. HEK‐293‐hTRPM8 cells were cultured in a monolayer using a DMEM GlutaMax with 10% FBS and 1% P/S and maintained at 37 °C in 5% CO2. For experiments, cells were prepared and seeded at the indicated densities. To evaluate compound effectiveness against hTRPM8 activity, microfluorometry‐based calcium flux assays were performed using Fluo‐4 NW Ca^2+ dye and fluorescence detection. HEK cell lines expressing hTRPM8 were seeded in 96‐well plates and incubated with the dye‐loading solution. Ion channel activity was measured using a plate reader, and fluorescence intensity changes were recorded following the addition of vehicle, compound at varying concentrations, and antagonist (10 μM AMTB). Data analysis included calculating the Z‐factor for each assay and normalizing compound effects to […]. Data were analyzed to determine the concentration exerting half‐maximal inhibition (IC50) or activation (EC50) of agonist‐induced calcium elevation, using GRAPHPAD PRISM8® software (Boston, MA, USA). All experiments were conducted in triplicate, and results are presented as mean ± standard deviation.

[3] = hTRPM8-HEK293, block of half channel activity evoked by WS-12, mean ± SD, N = 3, read-out: IC50
[4] = hTRPM8-HEK293, mean ± SD, N = 3

Row | SMILES | Emax [1] [%] | IC50 [2] [nM] | Activity (agonist/antagonist) ([2]; hTRPM8-HEK293) | Hill coefficient ([2]; mean ± SD) | IC50 [2, 3] [nM] | fold lower agonist potency compared with α‐aminoacyl amide 32 ([2]; hTRPM8-HEK293, EC50 comparison) [fold] | EC50 [2, 4] [nM]
1 | O=C(COC(=O)Cc1ccccc1)NC12CC3CC(CC(C3)C1)C2 [Compound 21, 2‐((3S,5S,7S)‐adamantan‐1‐ylamino)‐2‐oxoethyl 2‐phenylacetate] | 44 | 1500 ± 1100 | Antagonist | 0.5 ± 2.3 |  |  | 
2 | O=C(COC(=O)c1ccccc1)NC12CC3CC(CC(C3)C1)C2 [Compound 20, 2‐((3S,5S,7S)‐adamantan‐1‐ylamino)‐2‐oxoethyl benzoate] | 60 |  | Antagonist | 0.4 ± 1.2 | 1800 ± 1100 |  | 
3 | O=C(CN1CCN(C(=O)C2CCCC2)CC1)NC12CC3CC(CC(C3)C1)C2 [Compound 43, N‐((3S,5S,7S)‐adamantan‐1‐yl)‐2‐(4‐(cyclopentanecarbonyl)piperazin‐1‐yl)acetamide] | 82 |  | TRPM8 agonist | 0.6 ± 1.8 |  | > 10 | 9300 ± 1500
4 | CCCCN(CC(=O)NC12CC3CC(CC(C3)C1)C2)C(C)=O [Compound 39, N‐((3S,5S,7S)‐adamantan‐1‐yl)‐2‐(N‐butylacetamido)acetamide] | 64 |  | Agonist | 0.4 ± 9.1 |  |  | 500 ± 1400
5 | CC(=O)N(CC(=O)NC12CC3CC(CC(C3)C1)C2)C1CC1 [Compound 34, N‐((3S,5S,7S)‐adamantan‐1‐yl)‐2‐(N‐cyclopropylacetamido)acetamide] | 54 |  | Agonist | 0.3 ± 14 |  |  | 200
6 | O=C(COC(=O)c1cccc([N+](=O)[O-])c1)NC12CC3CC(CC(C3)C1)C2 [Compound 29, 2‐((3S,5S,7S)‐adamantan‐1‐ylamino)‐2‐oxoethyl 3‐nitrobenzoate] | 69 |  | Antagonist | 0.5 ± 3.0 | 2300 ± 1100 |  | 
7 | O=C(COC(=O)c1cccnc1)NC12CC3CC(CC(C3)C1)C2 [Compound 26, 2‐((3S,5S,7S)‐adamantan‐1‐ylamino)‐2‐oxoethyl nicotinate] | 72 |  | agonist activity | 0.4 ± 6.4 |  |  | 1900 ± 1600
8 | CCCC(=O)N(CC(=O)NC12CC3CC(CC(C3)C1)C2)C1CC1 [Compound 31, N‐(2‐(((3S,5S,7S)‐adamantan‐1‐yl)amino)‐2‐oxoethyl)‐N‐cyclopropylbutyramide] | 72 |  | Agonist | 0.7 ± 2.5 |  |  | 300
9 | CC(=O)NCCCC(=O)OCC(=O)NC12CC3CC(CC(C3)C1)C2 [Compound 27, 2‐((3S,5S,7S)‐adamantan‐1‐ylamino)‐2‐oxoethyl 4‐acetamidobutanoate] | 60 |  | agonistic activity; also recorded: Agonist | 0.3 ± 1.6 |  |  | 600 ± 1200
10 | O=C(CN1CCN(C(=O)Cc2ccccc2)CC1)NC12CC3CC(CC(C3)C1)C2 [Compound 44, N‐((3S,5S,7S)‐adamantan‐1‐yl)‐2‐(4‐(2‐phenylacetyl)piperazin‐1‐yl)acetamide] | 69 |  | Agonist | 0.7 ± 4.0 |  |  | 9600 ± 1500
11 | O=C(CN(C(=O)c1cc2ccccc2s1)C1CC1)NC12CC3CC(CC(C3)C1)C2 [Compound 35, N‐(2‐(((3S,5S,7S)‐adamantan‐1‐yl)amino)‐2‐oxoethyl)‐N‐cyclopropylbenzo[b]thiophene‐2‐carboxamide] | 40 |  | moderate antagonistic activity; also recorded: Antagonist | 2.0 ± 4.3 | 600 ± 1200 |  | 
12 | O=C(COC(=O)C1CCCC1)NC12CC3CC(CC(C3)C1)C2 [Compound 25, 2‐((3S,5S,7S)‐adamantan‐1‐ylamino)‐2‐oxoethyl cyclopentane carboxylate] | 57 |  | Antagonist | 0.8 ± 3.0 | 45000 ± 2000 |  | 
13 | O=C(CN1CCN(C(=O)c2ccccc2)CC1)NC12CC3CC(CC(C3)C1)C2 [Compound 42, N‐((3S,5S,7S)‐adamantan‐1‐yl)‐2‐(4‐benzoylpiperazin‐1‐yl)acetamide] | 73 |  | Agonist | 0.4 ± 4.3 |  |  | 5400 ± 1500
14 | O=C(CN(Cc1ccccc1)C(=O)Cc1ccccc1)NC12CC3CC(CC(C3)C1)C2 [Compound 41, N‐(2‐(((3S,5S,7S)‐adamantan‐1‐yl)amino)‐2‐oxoethyl)‐N‐benzyl‐2‐phenylacetamide] | 49 |  | Agonist | 2.1 ± 1.0 |  |  | 900 ± 1100
15 | CC(=O)N(CC(=O)NC12CC3CC(CC(C3)C1)C2)C12CC3CC(CC(C3)C1)C2 [Compound 38, N‐((3S,5S,7S)‐adamantan‐1‐yl)‐2‐(N‐((3S,5S,7S)‐adamantan‐1‐yl)acetamido)acetamide] | 65 |  | Agonist | 0.3 ± 3.6 |  |  | 2000 ± 1400
16 | O=C(CN(C(=O)c1ccccc1-c1ccccc1)C1CC1)NC12CC3CC(CC(C3)C1)C2 [Compound 33, N‐(2‐(((3S,5S,7S)‐adamantan‐1‐yl)amino)‐2‐oxoethyl)‐N‐cyclopropyl‐[1,1′‐biphenyl]‐2‐carboxamide] | 48 |  | moderate antagonistic activity; also recorded: Antagonist | 2.0 ± 7.8 | 1100 ± 1200 |  | 
17 | CCCC(=O)OCC(=O)NC12CC3CC(CC(C3)C1)C2 [Compound 24, 2‐((3S,5S,7S)‐adamantan‐1‐ylamino)‐2‐oxoethyl butyrate] | 19 |  | agonistic activity; also recorded: Agonist | 0.6 ± 0.2 |  |  | 19000 ± 2000
18 | O=C(COC(=O)c1ccc(Cl)cc1)NC12CC3CC(CC(C3)C1)C2 [Compound 28, 2‐((3S,5S,7S)‐adamantan‐1‐ylamino)‐2‐oxoethyl 4‐chlorobenzoate] | 87 |  | agonist activity | 0.1 ± 0.2 |  |  | 1200 ± 1200
19 | O=C(CN(C(=O)C1CCCC1)C1CC1)NC12CC3CC(CC(C3)C1)C2 [Compound 32, N‐(2‐(((3S,5S,7S)‐adamantan‐1‐yl)amino)‐2‐oxoethyl)‐N‐cyclopropylcyclopentanecarboxamide] | 56 |  | potent hTRPM8 agonist | 0.2 ± 1.5 |  |  | 400
20 | CC(=O)N(CC(=O)NC12CC3CC(CC(C3)C1)C2)Cc1ccccc1 [Compound 40, N‐((3S,5S,7S)‐adamantan‐1‐yl)‐2‐(N‐benzylacetamido)acetamide] | 86 |  | Agonist | 0.7 ± 2.4 |  |  | 1400 ± 1400
21 | O=C(CN(C(=O)c1ccccc1)C1CC1)NC12CC3CC(CC(C3)C1)C2 [Compound 30, N‐(2‐(((3S,5S,7S)‐adamantan‐1‐yl)amino)‐2‐oxoethyl)‐N‐cyclopropylbenzamide] | 92 |  | Agonist | 0.7 ± 1.6 |  |  | 1500 ± 1500
22 | O=C(CN(C(=O)Cc1ccccc1)C1CC1)NC12CC3CC(CC(C3)C1)C2 [Compound 36, N‐(2‐(((3S,5S,7S)‐adamantan‐1‐yl)amino)‐2‐oxoethyl)‐N‐cyclopropyl‐2‐phenylacetamide] | 47 |  | Agonist | 2.3 ± 2.6 |  |  | 4900 ± 1700
23 | CC(=O)N1CCN(CC(=O)NC23CC4CC(CC(C4)C2)C3)CC1 [Compound 45, 2‐(4‐acetylpiperazin‐1‐yl)‐N‐((3S,5S,7S)‐adamantan‐1‐yl)acetamide] | 54 |  | Agonist | 0.7 ± 2.1 |  |  | 2300 ± 1600
24 | CC(=O)N(CC(=O)NC12CC3CC(CC(C3)C1)C2)C1CCCCC1 [Compound 37, N‐((3S,5S,7S)‐adamantan‐1‐yl)‐2‐(N‐cyclohexylacetamido)acetamide] | 48 |  | Agonist | 0.9 ± 9.2 |  |  | 200
25 | CC(=O)OCC(=O)NC12CC3CC(CC(C3)C1)C2 [Compound 22, 2‐((3S,5S,7S)‐adamantan‐1‐ylamino)‐2‐oxoethyl acetate] | 64 |  | agonistic activity; also recorded: Agonist | 0.4 ± 1.3 |  |  | 1100 ± 1500
